Reference: ChEMBL document CHEMBL4311960, “Two optimized antimicrobial peptides with therapeutic potential for clinical antibiotic-resistant Staphylococcus aureus” (Eur J Med Chem, 2019)
Activity calls are given as the source filed them. The calls are words filed in the database; no cut-off is given here.

Columns and labels:
Staphylococcus aureus [1] = assay: Disruption of membrane integrity in Staphylococcus aureus ATCC 25923 assessed as invagination of cell membrane at MIC incubated for 24 hrs by scanning electron microscopy; type: functional, organism-based
Staphylococcus aureus [2] = assay: Inhibition of biofilm formation in methicillin-resistant Staphylococcus aureus ATCC 18466 assessed as downregulation of hld gene at MIC incubated for 1 hr by qRT-PCR; type: functional, organism-based
Staphylococcus aureus [3] = assay: Disruption of membrane integrity in methicillin-resistant Staphylococcus aureus ATCC 19498 assessed as extravasation of cytoplasmic content at MIC incubated for 24 hrs by scanning electron microscopy; type: functional, organism-based
Staphylococcus aureus [4] = assay: Inhibition of biofilm formation in methicillin-resistant Staphylococcus aureus ATCC 19498 assessed as downregulation of mecA gene at MIC incubated for 1 hr by qRT-PCR; type: functional, organism-based
Staphylococcus aureus [5] = assay: Inhibition of biofilm formation in methicillin-resistant Staphylococcus aureus ATCC 18466 assessed as downregulation of […] gene at MIC incubated for 1 hr by qRT-PCR; type: functional, organism-based
Staphylococcus aureus [6] = assay: Antibacterial activity against Staphylococcus aureus ATCC 25923 assessed as reduction in bacterial growth at MIC measured after 15 passages; type: functional
Streptococcus mutans = assay: Antibacterial activity against Streptococcus mutans UA159 assessed as reduction in bacterial growth incubated for 24 hrs by serial dilution method; type: functional; conditions: UA159, 24 h, read-out: MIC
Staphylococcus aureus [7] = assay: Inhibition of biofilm formation in methicillin-resistant Staphylococcus aureus ATCC 19498 assessed as downregulation of spa gene at MIC incubated for 1 hr by qRT-PCR; type: functional, organism-based
Staphylococcus aureus [8] = assay: Inhibition of biofilm formation in Staphylococcus aureus ATCC 29213 assessed as downregulation of spa gene at MIC incubated for 1 hr by qRT-PCR; type: functional, organism-based
Staphylococcus aureus [9] = assay: Inhibition of biofilm formation in Staphylococcus aureus ATCC 29213 assessed as downregulation of […] gene at MIC incubated for 1 hr by qRT-PCR; type: functional, organism-based
Staphylococcus aureus [10] = assay: Inhibition of biofilm formation in Staphylococcus aureus ATCC 29213 assessed as downregulation of mecA gene at MIC incubated for 1 hr by qRT-PCR; type: functional, organism-based
Staphylococcus aureus [11] = assay: Disruption of membrane integrity in Staphylococcus aureus ATCC 25923 assessed as cell membrane damage at MIC incubated for 24 hrs by scanning electron microscopy; type: functional, organism-based
Staphylococcus aureus [12] = assay: Disruption of membrane integrity in Staphylococcus aureus ATCC 29213 assessed as extravasation of cytoplasmic content at MIC incubated for 24 hrs by scanning electron microscopy; type: functional, organism-based
Staphylococcus aureus [13] = assay: Disruption of membrane integrity in methicillin-resistant Staphylococcus aureus ATCC 19498 assessed as invagination of cell membrane at MIC incubated for 24 hrs by scanning electron microscopy; type: functional, organism-based
[14] = Hemolytic activity in mouse Erythrocyte assessed as HC50 incubated for 1 hr; type: ADME, cell-based; conditions: mouse erythrocytes
Staphylococcus aureus [15] = assay: Disruption of membrane integrity in Staphylococcus aureus ATCC 29213 assessed as decrease in cell volume at MIC incubated for 24 hrs by scanning electron microscopy; type: functional, organism-based
Staphylococcus aureus [16] = assay: Inhibition of biofilm formation in methicillin-resistant Staphylococcus aureus ATCC 18466 at MIC incubated for 24 hrs by scanning electron microscopy; type: functional, organism-based
Staphylococcus aureus [17] = assay: Inhibition of biofilm formation in Staphylococcus aureus ATCC 25923 at MIC incubated for 24 hrs by scanning electron microscopy; type: functional, organism-based
Staphylococcus aureus [18] = assay: Disruption of membrane integrity in methicillin-resistant Staphylococcus aureus ATCC 19498 assessed as shrinking of cell membrane at MIC incubated for 24 hrs by scanning electron microscopy; type: functional, organism-based

Substance	Activity (Staphylococcus aureus [1])	inhibition (Staphylococcus aureus [2])	Activity (Staphylococcus aureus [3])	inhibition (Staphylococcus aureus [4])	inhibition (Staphylococcus aureus [5])	Activity (Staphylococcus aureus [6])	MIC (Streptococcus mutans)	inhibition (Staphylococcus aureus [7])	inhibition (Staphylococcus aureus [8])	inhibition (Staphylococcus aureus [9])	inhibition (Staphylococcus aureus [10])	Activity (Staphylococcus aureus [11])	Activity (Staphylococcus aureus [12])	Activity (Staphylococcus aureus [13])	HC50 at 1 h [14]	Activity (Staphylococcus aureus [15])	inhibition (Staphylococcus aureus [16])	inhibition (Staphylococcus aureus [17])	Activity (Staphylococcus aureus [18])
H-SYERKINRHFKTLKKNLKKK-NH2	Active	Active	Active	inactive	Active	Active	< 64 µg/mL	Active	Active	Active	inactive	Active	Active	Active	> 640 µg/mL	Active	Active	Active	Active
H-YIRKIRRFFKKLKKILKK-NH2	Active	Active	Active	inactive	Active	Active	64 µg/mL	Active	Active	Active	inactive	Active	Active	Active	> 640 µg/mL	Active	Active	Active	Active
